{"source": "patent US9925232B2", "about": "“Methods and compositions comprising desmopressin in combination with a 5-alpha reductase inhibitor” (Serenity Pharmaceuticals LLC, priority 2013, dated 2018)", "key": {"[1]": {"conditions": "human, in vivo; cited from earlier work"}, "[2]": {"test_system": "patients experiencing on average at least two nocturnal voids per night", "experiment": "Clinical study: reduction in the average number of nocturnal voids (Responder / Non-Responder)", "format": "in vivo, human", "experimental": "A clinical study was performed to evaluate the impact of administering desmopressin in combination with a 5-alpha reductase inhibitor alone or together with an alpha-adrenergic receptor antagonist to reduce the occurrence of nocturnal voiding by a patient. Experimental procedures and results are described below. […] Patients received as a nasal spray either (i) a 1.5 μg dosage of desmopressin or (ii) placebo. The desmopressin nasal spray (or placebo) was administered daily just prior to bedtime for a duration of twelve weeks. In addition, patients previously diagnosed as suffering from benign prostatic hyperplasia (BPH) and receiving a 5-alpha reductase inhibitor alone or together with an alpha-adrenergic receptor antagonist for treatment of BPH continued to receive the 5-alpha reductase inhibitor alone or together with the alpha-adrenergic receptor antagonist at the same dosage and frequency used prior to enrollment in this study. All patients in this study who received a 5-alpha reductase inhibitor alone or together with an alpha-adrenergic receptor antagonist for treatment of their BPH had been receiving the 5-alpha reductase inhibitor alone or together with the alpha-adrenergic receptor antagonist for at least 2 months before enrollment in this study and experienced on average at least two nocturnal voids per night before enrollment in this study. The desmopressin nasal spray was prepared by combining aliquots of an Emulsion Stock Solution and a Buffer Solution as described below. To produce the desmopressin nasal spray, aliquots of the 30 μg/mL solution were filtered to eliminate any bacterial contamination and diluted with an equal volume of emulsion stock solution to produce aseptic, preservative free dose forms comprising 15 μg/mL desmopressin, pH 5.5, containing 2% cyclopentadecanolide. These were bottled in sterile pump spray bottles fitted with a Pfeiffer APF pump sprayers that deliver 100 μL per metered spray (i.e., 1.5 μg desmopressin (i.e., 1500 ng desmopressin) per spray). The liquid contains no detectable microorganisms. Patients recorded the occurrence of nocturnal voids during the study period. Patients were designated to be a “Responder” if after receiving treatment there was a reduction in the average number of nocturnal voids during the treatment period."}, "[3]": {"conditions": "BPH patients receiving 5-alpha reductase inhibitor alone or together with alpha-adrenergic receptor antagonist, 1.5 μg nasal spray daily, twelve weeks, n = 14"}, "[4]": {"conditions": "BPH patients, second component none (no 5-alpha reductase inhibitor or alpha-adrenergic receptor antagonist), 1.5 μg nasal spray daily, twelve weeks, n = 42"}, "[5]": {"conditions": "BPH patients, alpha-adrenergic receptor antagonist and 5-alpha reductase inhibitor, 1.5 μg desmopressin nasal spray daily, twelve weeks, n = 14"}, "[6]": {"conditions": "BPH patients, second component 5-alpha reductase inhibitor, 1.5 μg desmopressin nasal spray daily prior to bedtime, twelve weeks, n = 14"}, "[7]": {"conditions": "male patients without BPH, second component none, 1.5 μg nasal spray daily, twelve weeks, n = 34"}}}
{"smiles": "NC(=O)CC[C@@H]1NC(=O)[C@H](Cc2ccccc2)NC(=O)[C@H](Cc2ccc(O)cc2)NC(=O)CCSSC[C@@H](C(=O)N2CCC[C@H]2C(=O)N[C@H](CCCN=C(N)N)C(=O)NCC(N)=O)NC(=O)[C@H](CC(N)=O)NC1=O", "note": "[Desmopressin, 1-desamino-8-D-arginine vasopressin]", "values": [{"measurement": "half-life (known clearance rate)", "setting": "[1]", "value": "1.5 to 2.0", "unit": "h"}, {"measurement": "Difference in Responder Response Rate Between Desmopressin-treated Patients & Those Receiving Placebo", "setting": "[2]; BPH patients receiving 5-alpha reductase inhibitor alone or together with alpha-adrenergic receptor antagonist", "value": 40, "unit": "%"}, {"measurement": "Non-Responder Patients: Total Number of Patients that Received Desmopressin", "setting": "[2]; [3]", "value": 6}, {"measurement": "Percent Total Non-Responder Patients that Received Desmopressin", "setting": "[2]; [3]", "value": "43% (6/14)"}, {"measurement": "Percent Total Responder Patients that Received Desmopressin (absolute response rate)", "setting": "[2]; [3]", "value": 57, "unit": "%"}, {"measurement": "Responder Patients: Total Number of Patients that Received Desmopressin", "setting": "[2]; [3]", "value": 8}, {"measurement": "Difference in Responder Response Rate Between Desmopressin-treated Patients & Those Receiving Placebo", "setting": "[2]; BPH patients receiving 5-alpha reductase inhibitor alone or together with alpha-adrenergic receptor antagonist, listed as desmopressin", "value": 40, "unit": "%"}, {"measurement": "Difference in Responder Response Rate Between Desmopressin-treated Patients & Those Receiving Placebo", "setting": "[2]; BPH patients that did not receive a 5-alpha reductase inhibitor or an alpha-adrenergic receptor antagonist", "value": 14, "unit": "%"}, {"measurement": "Difference in Responder Response Rate Between Desmopressin-treated Patients & Those Receiving Placebo", "setting": "[2]; BPH patients that did not receive a 5-alpha reductase inhibitor or an alpha-adrenergic receptor antagonist, listed as desmopressin", "value": 14, "unit": "%"}, {"measurement": "Non-Responder Patients: Number of Patients that Received Desmopressin", "setting": "[2]; [4]", "value": 24}, {"measurement": "Percent Total Non-Responder Patients that Received Desmopressin", "setting": "[2]; [4]", "value": 57, "unit": "%"}, {"measurement": "Percent Total Responder Patients that Received Desmopressin (absolute response rate)", "setting": "[2]; [4]", "value": 43, "unit": "%"}, {"measurement": "Responder Patients: Number of Patients that Received Desmopressin", "setting": "[2]; [4]", "value": 18}, {"measurement": "Percent Total Responder Patients that Received Desmopressin (absolute response rate)", "setting": "[2]; BPH patients, second component none (no 5-alpha reductase inhibitor or alpha-adrenergic receptor antagonist), 1.5 μg nasal spray daily, twelve weeks, n = 42, listed as desmopressin", "value": 43, "unit": "%"}, {"measurement": "Non-Responder Patients: Number of Patients that Received Desmopressin", "setting": "[2]; [5]", "value": 2}, {"measurement": "Responder Patients: Number of Patients that Received Desmopressin", "setting": "[2]; [5]", "value": 5}, {"measurement": "Non-Responder Patients: Number of Patients that Received Desmopressin", "setting": "[2]; [6]", "value": 4}, {"measurement": "Responder Patients: Number of Patients that Received Desmopressin", "setting": "[2]; [6]", "value": 3}, {"measurement": "Difference in Responder Response Rate Between Desmopressin-treated Patients & Those Receiving Placebo", "setting": "[2]; male patients not diagnosed with BPH, not receiving a 5-alpha reductase inhibitor or an alpha-adrenergic receptor antagonist", "value": 18, "unit": "%"}, {"measurement": "Difference in Responder Response Rate Between Desmopressin-treated Patients & Those Receiving Placebo", "setting": "[2]; male patients not diagnosed with BPH, not receiving a 5-alpha reductase inhibitor or an alpha-adrenergic receptor antagonist, listed as desmopressin", "value": 18, "unit": "%"}, {"measurement": "Non-Responder Patients: Number of Patients that Received Desmopressin", "setting": "[2]; [7]", "value": 16}, {"measurement": "Percent Total Non-Responder Patients that Received Desmopressin", "setting": "[2]; [7]", "value": 47, "unit": "%"}, {"measurement": "Percent Total Responder Patients that Received Desmopressin (absolute response rate)", "setting": "[2]; [7]", "value": 53, "unit": "%"}, {"measurement": "Responder Patients: Number of Patients that Received Desmopressin", "setting": "[2]; [7]", "value": 18}, {"measurement": "Percent Total Responder Patients that Received Desmopressin (absolute response rate)", "setting": "[2]; male patients without BPH, second component none, 1.5 μg nasal spray daily, twelve weeks, n = 34, listed as desmopressin", "value": 53, "unit": "%"}]}
